This is an account of results in US20220288058A1, “COMBINATION THERAPY USING A MALT1 INHIBITOR AND A BTK INHIBITOR” (Janssen Pharmaceutica NV, priority 2021, published 2022).

Each structure is given as a SMILES string.

Test [1] concerns NF-κB-driven cytokines: interleukin (IL)10, tumor necrosis factor α (TNF α), and IL 12p70. Kind of test: Serum cytokine secretion in LY2298 tumor bearing mice. The class given is in vivo, mouse. The following applies: 1 day posttreatment, compared with vehicle. As for the experimental part: Cytokine secretion from serum samples of LY2298 tumor bearing mice was measured following Compound A and Compound B treatment.

In a further test the test system is OCI-Ly3. Kind of test: Inhibition of DLBCL cancer cell proliferation (CellTiter-Glo), Compound A and Compound B mono and combination. The following applies: monotherapy, highest concentration tested, 4 days. The test is classed as cell-based. The procedure:
(§1) Compound A and Compound B were used throughout the in vitro and cellular assessment of activity. All small molecules were prepared as 100% dimethyl sulfoxide (DMSO) stocks as indicated. A final concentration of 0.25% DMSO was used as a control. High Control=Cells+DMSO 0.25%.
(§2) A panel of 4 B-cell lymphoma lines was treated with different doses of both compounds. The following ABC-DLBCL cell lines were tested: OCI-Ly10; TMD8; OCI-Ly3; and HBL1. The cell lines were grown in 96-well plates and treated with a matrix of seven scalar concentrations of Compound A ([…]) and six scalar concentrations of Compound B ([…]) and all combinations thereof. This checkerboard design was repeated on up to four separate plates. The final concentration of DMSO was 0.25%. After an incubation of four days at 37° C. and 5% CO2, cell viability was determined by adding CellTiter-Glo®. Luminescence was read on an Envision device and readouts were used to calculate potential combination effects.
(§3) For the assessment of combination effects on DLBCL or MCL cancer cell proliferation, the observed combination effects were evaluated using the public available BIGL (Biochemically Intuitive Generalized Loewe Model) R package which measures the evidence in the data, in the presence of variability, against certain null models derived from the monotherapies. In first step, monotherapies were fitted with 4PL models with extra constraint of common baseline between two agents. When no activity was observed, a straight line was fitted through the monotherapy data. In a second step, hypothesis tests at 5% significance level were performed which basically contrast the observed readouts of the combination experiments with those predicted from the null model derived from the monotherapies where both HSA (Highest Single Agent) 17 and generalized Loewe18 were assessed for these studies.
For orientation: Cellular ATP, detected with luciferase, serves as a proxy for viable cell number.

Another test deals with TMD8. The test is described as above. The class given is cell-based. As to conditions: monotherapy, highest concentration tested, 4 days. As for the experimental part: as §1, §2, §3
Another test relates to MINO. Kind of test: Inhibition of MCL cancer cell proliferation (CellTiter-Glo), Compound A and Compound B mono and combination. The class given is cell-based. The following applies: monotherapy, 4 days. As for the experimental part:
as §1, §2
(§4) A panel of 4 MCL cell lines were treated with different doses for both compounds (using the same dosing as above). The following MCL cell lines were tested: REC-1; JEKO-1; MINO; and MAVER-1.
as §3

A further test has as its system JEKO-1. The test is described as above. The test is classed as cell-based. As to conditions: monotherapy, 4 days. The procedure:
as §1, §2, §4, §3

A further test relates to MAVER-1. The description is as above. The class given is cell-based. As to conditions: monotherapy, 4 days. As for the experimental part:
as §1, §2, §4, §3

Another test deals with T1, BTK protein (Homo sapiens, UniProt Q06187).
T1 construct: measuring the amount of free BTK protein in OCI-LY10 DLBCL tumor lysates of mice treated with various dosing concentrations of Compound B; endogenous in cells; host or cells: OCI-LY10 ABC-DLBCL xenograft tumours grown SC in female NSG mice (tumour lysates)
T1 sequence (Q06187 whole entry): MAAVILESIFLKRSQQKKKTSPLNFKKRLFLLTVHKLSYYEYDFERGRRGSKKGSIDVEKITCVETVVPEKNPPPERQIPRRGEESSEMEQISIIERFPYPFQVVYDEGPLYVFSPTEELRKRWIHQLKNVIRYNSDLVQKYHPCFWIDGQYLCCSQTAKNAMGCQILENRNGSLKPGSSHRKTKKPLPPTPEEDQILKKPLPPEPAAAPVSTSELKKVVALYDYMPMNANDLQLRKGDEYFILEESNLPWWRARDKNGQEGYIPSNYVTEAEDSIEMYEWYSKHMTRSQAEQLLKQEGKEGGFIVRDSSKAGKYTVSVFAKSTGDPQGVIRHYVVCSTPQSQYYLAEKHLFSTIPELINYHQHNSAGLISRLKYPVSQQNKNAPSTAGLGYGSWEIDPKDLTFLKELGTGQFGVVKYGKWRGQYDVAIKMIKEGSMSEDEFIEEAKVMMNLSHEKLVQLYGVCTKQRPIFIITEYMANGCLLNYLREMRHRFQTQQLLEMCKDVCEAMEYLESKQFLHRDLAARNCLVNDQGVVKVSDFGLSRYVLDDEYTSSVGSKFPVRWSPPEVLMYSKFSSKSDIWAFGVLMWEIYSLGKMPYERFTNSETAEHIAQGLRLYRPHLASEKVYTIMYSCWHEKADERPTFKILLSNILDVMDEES
Kind of test: Study 1: BTK occupancy assay (ELISA) in OCI-LY10 DLBCL tumor lysates of NSG mice. The class given is in vivo, mouse. The procedure: In Study 1, 5×10^6 OCI-LY10 cells in PBS containing 50% Matrigel™ were injected subcutaneously (SC) into the right hind flank of female NSG mice. Tumor growth was measured over time and once tumors reached volumes of approximately 525 mm^3, mice were randomized in groups of 15 and treated orally with a single dose of Compound B according to treatment schedule (see Table 4). Blood was collected serially by mandibular vein sampling from 5 animals per time point per group to determine circulating compound concentration and IL10 levels at 2, 4, 8, 12, 16, and 24 hours post single dose. Blood was harvested in EDTA and plasma was obtained via centrifugation at 3000 rpm for 10 minutes. In addition, tumor samples were harvested from 5 animals per timepoint per treatment group for BTK occupancy studies at 4, 12, and 24 hours post single dose.
Compound B is a covalent orally bioavailable inhibitor binding BTK irreversibly, allowing us to evaluate the duration of signaling shutdown and occupancy of BTK protein after compound administration considering compound binding to BTK as well as synthesis rate of new BTK protein. Target engagement was determined by measuring the amount of free BTK protein in OCI-LY10 DLBCL tumor lysates of mice treated with various dosing concentrations of Compound B using a BTK occupancy assay (ELISA assay format). A covalent BTK inhibitor probe, chemically linked to biotin (CNX-500 Probe), was incubated in PBS/BT (PBS+1% BSA+0.05% tween-20) with tumor lysate for 1 hour at 28° C. Incubated BTK standards and samples were transferred to a streptavidin-coated 96-well plates and mixed while shaking for 30 minutes at RT. The BTK-antibody was then added and incubated overnight at 4° C. After washing, goat anti-mouse-HRP was added and incubated for 1 hour at RT. The ELISA was developed with addition of tetramethyl benzidine (TMB) followed by sulfuric acid (stop solution) and read at optical density 450 nm on Envision device.
(In general: An ELISA detects its analyte on a solid surface through an enzyme-linked reagent.)

As for `C=CC(=O)N[C@H]1CCC[C@H]1NC(=O)c1sc2nccc3c2c1NC(=O)N3c1cnc(CC(C)C)cc1C` (atropisomer, axis not shown) [Compound B, N-((1R,2S)-2-acrylamidocyclopentyl)-5-(S)-(6-isobutyl-4-methylpyridin-3-yl)-4-oxo-4,5-dihydro-3H-1-thia-3,5,8-triazaacenaphthylene-2-carboxamide], the “serum secretion of IL 12p70” value in test [1] was “significantly downregulated”. Further, the “serum secretion of interleukin (IL)10” value in test [1] is “significantly downregulated”. Also, in test [1], the “serum secretion of tumor necrosis factor α (TNF α)” value was “significantly downregulated”. In addition, the proliferation inhibition entry with OCI-Ly3 is “did not inhibit proliferation”; in the test with TMD8, “up to 80%”; in the test on MINO, ~30%; with JEKO-1 it was ~25%; in the test with MAVER-1 it was “no to minor inhibition of proliferation”. The “BTK occupancy in tumor lysates” value at BTK protein (1 mg/kg single dose) and on BTK protein (3 mg/kg single dose) was “No BTK occupancy” throughout. The “decrease in unoccupied (free) BTK in tumors” value on BTK protein (Compound B at 1, 3, 10, 30, or 100 mg/kg single dose, maximal at ≥ 30 mg/kg, sustained through 24 hours) is “Dose-and time-dependent”. The receptor occupancy at 10 mg/kg on BTK protein (OCI-Ly10, 4 hours after dosing) came out at 54%; at BTK protein (OCI-Ly10, 12 hours) it was 71%; on BTK protein (OCI-Ly10, 24 hours) it was 70%. The receptor occupancy at 30 mg/kg on BTK protein (OCI-Ly10, 4 hours after dosing) came out at 90%; at BTK protein (OCI-Ly10, 12 hours), 94%; at BTK protein (OCI-Ly10, 24 hours) it was 91%. The receptor occupancy at 100 mg/kg on BTK protein (OCI-Ly10, 4 hours after dosing) was determined as 95%; on BTK protein (OCI-Ly10, 12 hours) it was 96%; at BTK protein (OCI-Ly10, 24 hours), 85%. Besides, on BTK protein (single dose as low as 30 mg/kg, effects lasting up to 24 hours), the “BTK occupancy in tumors” value is “complete BTK occupancy”.
